In the NIST ThermoML archive (doi:10.1016/j.jct.2009.06.010):

Key:
[1] = mn = molality of the nth substance listed, in mol/kg; conditions: 298.15 K, 101 kPa, Liquid; for viscosity: Capillary tube (Ostwald / Ubbelohde) method; for mass density: Vibrating tube method
[2] = cn = amount concentration of the nth substance listed, in mol/dm3; conditions: 298.15 K, 101 kPa, Liquid

C[C@H](N)C(=O)N[C@@H](CCC(N)=O)C(=O)O [L-alanyl-L-glutamine] + O
[1]
Conditions | mass density [kg/m3] | viscosity [mPa·s]
m1 = 0.0401 | 999.957 | –
m1 = 0.05 | – | 0.918
m1 = 0.08086 | 1002.88 | –
m1 = 0.1 | – | 0.948
m1 = 0.1012 | 1004.32 | –
m1 = 0.148 | 1007.6 | –
m1 = 0.15 | – | 0.978
m1 = 0.2 | – | 1.008
m1 = 0.2002 | 1011.17 | –
m1 = 0.2448 | 1014.22 | –
m1 = 0.2993 | 1017.77 | –

NCC(=O)N[C@@H](CCC(N)=O)C(=O)O [glycyl-l-glutamine] + O
[1]
Conditions | mass density [kg/m3] | viscosity [mPa·s]
m1 = 0.03879 | 1000.01 | –
m1 = 0.05 | – | 0.913
m1 = 0.06116 | 1001.7 | –
m1 = 0.08141 | 1003.22 | –
m1 = 0.1 | – | 0.936
m1 = 0.1008 | 1004.66 | –
m1 = 0.1497 | 1008.28 | –
m1 = 0.15 | – | 0.961
m1 = 0.1987 | 1011.85 | –
m1 = 0.2 | – | 0.985
m1 = 0.2522 | 1015.68 | –

CCCC(=O)[O-].[Na+] [sodium butyrate] + O
[2]
Conditions | molar conductivity [S·m2/mol]
c1 = 0.0003234 | 0.00796
c1 = 0.001116 | 0.00795
c1 = 0.001273 | 0.007936
c1 = 0.001488 | 0.007915
c1 = 0.00188 | 0.00788
c1 = 0.00243 | 0.007842
c1 = 0.002454 | 0.00787
c1 = 0.003167 | 0.00766
c1 = 0.006298 | 0.007526
c1 = 0.008849 | 0.007443
c1 = 0.01124 | 0.00737
c1 = 0.01353 | 0.007315
c1 = 0.0155 | 0.00727
c1 = 0.01721 | 0.007239
c1 = 0.01916 | 0.007203
c1 = 0.02091 | 0.00717
c1 = 0.02284 | 0.007137
c1 = 0.02481 | 0.0071
c1 = 0.02647 | 0.00707

CC(=O)[O-].[Na+] [sodium ethanoate] + O
[2]
Conditions | molar conductivity [S·m2/mol]
c1 = 0.0002726 | 0.0088
c1 = 0.0004823 | 0.008807
c1 = 0.0007722 | 0.008806
c1 = 0.0009672 | 0.00879
c1 = 0.001191 | 0.00877
c1 = 0.001382 | 0.00872
c1 = 0.001567 | 0.008739
c1 = 0.001787 | 0.00872
c1 = 0.002055 | 0.008701
c1 = 0.002254 | 0.00869
c1 = 0.002454 | 0.00867
c1 = 0.003305 | 0.00849
c1 = 0.00463 | 0.00842
c1 = 0.006134 | 0.008351
c1 = 0.007784 | 0.00829
c1 = 0.008716 | 0.00826
c1 = 0.01014 | 0.008207
c1 = 0.01138 | 0.00817
c1 = 0.01268 | 0.008135
c1 = 0.01404 | 0.008103
c1 = 0.01528 | 0.00808
c1 = 0.01648 | 0.00806
c1 = 0.01789 | 0.00802
c1 = 0.01915 | 0.008
c1 = 0.02025 | 0.00797
c1 = 0.02164 | 0.007945
c1 = 0.02337 | 0.007911
c1 = 0.02523 | 0.00787
c1 = 0.02696 | 0.007849
